Results: ChEMBL document CHEMBL1142133 (2007)

Columns and labels:
Type in all cases: functional
Cryptococcus neoformans [1] = test: Antifungal activity against flucytosine-resistant Cryptococcus neoformans 550 by checkerboard method
Cryptococcus neoformans [2] = test: Antifungal activity against flucytosine-resistant Cryptococcus neoformans 98.0673 by checkerboard method
Cryptococcus neoformans [3] = test: Antifungal activity against flucytosine-resistant Cryptococcus neoformans 99.1026 by checkerboard method
Cryptococcus neoformans [4] = test: Antifungal activity against flucytosine-resistant Cryptococcus neoformans 98.1121 by checkerboard method
Cryptococcus neoformans [5] = test: Antifungal activity against flucytosine-resistant Cryptococcus neoformans 276 by checkerboard method
Cryptococcus neoformans [6] = test: Antifungal activity against flucytosine-resistant Cryptococcus neoformans 280 by checkerboard method
Cryptococcus neoformans [7] = test: Antifungal activity against flucytosine-resistant Cryptococcus neoformans 533 by checkerboard method
Cryptococcus neoformans [8] = test: Antifungal activity against flucytosine-resistant Cryptococcus neoformans 285 by checkerboard method
Cryptococcus neoformans [9] = test: Antifungal activity against flucytosine-resistant Cryptococcus neoformans 98.0176 by checkerboard method
Cryptococcus neoformans [10] = test: Antifungal activity against flucytosine-resistant Cryptococcus neoformans 18476 by checkerboard method

O=c1[nH]cc(F)c(=O)[nH]1 [FLUOROURACIL]
MIC (Cryptococcus neoformans [1]): 0.5 µg/mL | MIC (Cryptococcus neoformans [2]): 16 µg/mL | MIC (Cryptococcus neoformans [3]): 8 µg/mL | MIC (Cryptococcus neoformans [4]): 256 µg/mL | MIC (Cryptococcus neoformans [5]): 256 µg/mL | MIC (Cryptococcus neoformans [6]): 256 µg/mL | MIC (Cryptococcus neoformans [7]): 256 µg/mL | MIC (Cryptococcus neoformans [8]): 4 µg/mL | MIC (Cryptococcus neoformans [9]): 0.008 µg/mL | MIC (Cryptococcus neoformans [10]): 0.25 µg/mL
